Data reported in EP2468718A1, “Cabanillasin, a new antifungal compound, produced by entomopathogenic xenorhabdus cabanillasii” (Nosopharm, priority 2010, dated 2012).
Like-named read-outs stand apart in the source and are kept apart here.

What was measured:
Test in all cases: Antifungal susceptibility testing, NCCLS M27-A2 broth microdilution (yeasts)
Assay type in all cases: cell-based
[1] = system: Candida Glabrata ATCC 90030; settings: Nakaseomyces glabratus, ATCC90030, read-out: % of growth inhibition
Protocol: (§1) Cabanillasin activity was tested against different fungal human pathogens: ascomycetes yeasts (Candida albicans ATCC 90029, Candida Glabrata ATCC 90030, Candida krusei ATCC 6258 and Candida lusitaniae CBS 6936), basidiomycetes yeasts (Cryptococcus neoformans clinical strain), ascomycetes filamentous fungi (Aspergilus fumigatus clinical strain, Fusarium oxysporum clinical strain) and zygomycetes filamentous fungi (Rhizopus oryzae environemental strain) by the M38-A microdilution method with RPMI 1640 medium (RPMI 1640, MOPS 160 mM, glucose 18 g/L, pH 7) as recommended in the […]. The NCCLS M27-A2 broth microdilution method (NCCLS) was used when yeasts were tested.
(§2) Yeasts and filamentous inoculi were prepared on YPD medium (yeast extract 10 g/L, peptone 10 g/L and glucose 20 g/L) and Malt medium (malt extract 20 g/L) respectively. The densities of inoculi were adjusted by dilution in RPMI 1640 broth to a value ranged from 5.10^2 to 5.10^3 CFU/mL for yeasts isolates and 5.10^3 to 5.10^4 CFU/mL for filamentous fungi. Microdilution trays (96 U-bottom shaped) containing 190 µL fungal inoculum were added with 10 µL Cabanillasin solution (final concentration ranging from 50 to 0.098 mg/L for all fungi). After inoculation of the trays, all microdilution trays were incubated at 35°C in ambient air. The culture absorbance was measured at 600 nm, 24 h and 48 h after the beginning of the experiments for the yeasts and 48 h and 72 h after the beginning of the experiments for filamentous fungi and Cryptococcus neoformans. The activity results correspond to a percentage of growth inhibition ((1-Abs600 nm culture with Cabanillasin)/ Abs600 nm culture without Cabanillasin) x 100.
(§3) The IC50 value is the concentration at which inhibition of growth is equal to 50%. MICs for Candida species were determined at 24 h and 48 h and corresponded to 100% of growth inhibition. Amphotericin B was provided as standard (final concentration ranging from 16 to 0.03 mg/L for all fungi). Experiments were done in duplicate.

[2] = system: Candida lusitaniae CBS 6936; settings: Clavispora lusitaniae, CBS6936, read-out: % of growth inhibition
Protocol: as §1, §2, §3

[3] = system: Cryptococcus neoformans clinical strain; settings: read-out: % of growth inhibition
Protocol: as §1, §2, §3

[4] = system: Candida albicans ATCC 90029; settings: read-out: % of growth inhibition; for inhibition at 0.03 µg/mL: ATCC90029, 0.03 µg/mL; for inhibition at 0.06 µg/mL: ATCC90029, 0.06 µg/mL; for inhibition at 0.12 µg/mL: ATCC90029, 0.12 µg/mL; for inhibition at 0.25 µg/mL: ATCC90029, 0.25 µg/mL; for inhibition at 0.5 µg/mL: ATCC90029, 0.5 µg/mL; for inhibition at 1 µg/mL: ATCC90029, 1 µg/mL; for inhibition at 2 µg/mL: ATCC90029, 2 µg/mL; for inhibition at 4 µg/mL: ATCC90029, 4 µg/mL; for inhibition at 8 µg/mL: ATCC90029, 8 µg/mL; for inhibition at 16 µg/mL: ATCC90029, 16 µg/mL
Protocol: as §1, §2, §3

[5] = system: Candida krusei ATCC 6258; settings: Pichia kudriavzevii, ATCC6258, read-out: % of growth inhibition
Protocol: as §1, §2, §3

C[C@@H]1[C@H](O)[C@@H](C)/C=C/C=C/C=C/C=C/C=C/C=C/C=C/[C@H](O[C@@H]2O[C@H](C)[C@@H](O)[C@H](N)[C@@H]2O)C[C@@H]2O[C@](O)(C[C@@H](O)C[C@@H](O)[C@H](O)CC[C@@H](O)C[C@@H](O)CC(=O)O[C@H]1C)C[C@H](O)[C@H]2C(=O)O [Amphotericin B, reference compound]
44%: inhibition at 0.12 µg/mL ([3]; 72 h incubation)
45.4%: inhibition at 0.06 µg/mL ([2]; 48 h incubation)
56.7%: inhibition at 0.06 µg/mL ([4]; 24 h incubation)
23%: inhibition at 0.06 µg/mL ([1]; 48 h incubation)
48%: inhibition at 0.06 µg/mL ([5]; 48 h incubation)
71.3%: inhibition at 0.06 µg/mL ([1]; 24 h incubation)
19%: inhibition at 0.03 µg/mL ([2]; 24 h incubation)
70%: inhibition at 0.12 µg/mL ([3]; 48 h incubation) | inhibition at 0.12 µg/mL ([4]; 48 h incubation)
100%: inhibition at 0.12 µg/mL ([1]; 24 h incubation) | inhibition at 0.25 µg/mL ([1]; 24 h incubation) | inhibition at 0.25 µg/mL ([1]; 48 h incubation) | inhibition at 0.5 µg/mL ([1]; 24 h incubation) | inhibition at 0.5 µg/mL ([1]; 48 h incubation) | inhibition at 1 µg/mL ([1]; 24 h incubation) | inhibition at 1 µg/mL ([1]; 48 h incubation) | inhibition at 2 µg/mL ([1]; 24 h incubation) | inhibition at 2 µg/mL ([1]; 48 h incubation) | inhibition at 4 µg/mL ([1]; 24 h incubation) | inhibition at 4 µg/mL ([1]; 48 h incubation) | inhibition at 8 µg/mL ([1]; 24 h incubation) | inhibition at 8 µg/mL ([1]; 48 h incubation) | inhibition at 16 µg/mL ([1]; 24 h incubation) | inhibition at 16 µg/mL ([1]; 48 h incubation) | inhibition at 0.12 µg/mL ([2]; 24 h incubation) | inhibition at 0.25 µg/mL ([2]; 24 h incubation) | inhibition at 0.25 µg/mL ([2]; 48 h incubation) | inhibition at 0.5 µg/mL ([2]; 24 h incubation) | inhibition at 0.5 µg/mL ([2]; 48 h incubation) | inhibition at 1 µg/mL ([2]; 24 h incubation) | inhibition at 1 µg/mL ([2]; 48 h incubation) | inhibition at 2 µg/mL ([2]; 24 h incubation) | inhibition at 2 µg/mL ([2]; 48 h incubation) | inhibition at 4 µg/mL ([2]; 24 h incubation) | inhibition at 4 µg/mL ([2]; 48 h incubation) | inhibition at 8 µg/mL ([2]; 24 h incubation) | inhibition at 8 µg/mL ([2]; 48 h incubation) | inhibition at 16 µg/mL ([2]; 24 h incubation) | inhibition at 16 µg/mL ([2]; 48 h incubation) | inhibition at 0.25 µg/mL ([3]; 48 h incubation) | inhibition at 0.5 µg/mL ([3]; 48 h incubation) | inhibition at 0.5 µg/mL ([3]; 72 h incubation) | inhibition at 1 µg/mL ([3]; 48 h incubation) | inhibition at 1 µg/mL ([3]; 72 h incubation) | inhibition at 2 µg/mL ([3]; 48 h incubation) | inhibition at 2 µg/mL ([3]; 72 h incubation) | inhibition at 4 µg/mL ([3]; 48 h incubation) | inhibition at 4 µg/mL ([3]; 72 h incubation) | inhibition at 8 µg/mL ([3]; 48 h incubation) | inhibition at 8 µg/mL ([3]; 72 h incubation) | inhibition at 16 µg/mL ([3]; 48 h incubation) | inhibition at 16 µg/mL ([3]; 72 h incubation) | inhibition at 0.25 µg/mL ([4]; 24 h incubation) | inhibition at 0.25 µg/mL ([4]; 48 h incubation) | inhibition at 0.5 µg/mL ([4]; 24 h incubation) | inhibition at 0.5 µg/mL ([4]; 48 h incubation) | inhibition at 1 µg/mL ([4]; 24 h incubation) | inhibition at 1 µg/mL ([4]; 48 h incubation) | inhibition at 2 µg/mL ([4]; 24 h incubation) | inhibition at 2 µg/mL ([4]; 48 h incubation) | inhibition at 4 µg/mL ([4]; 24 h incubation) | inhibition at 4 µg/mL ([4]; 48 h incubation) | inhibition at 8 µg/mL ([4]; 24 h incubation) | inhibition at 8 µg/mL ([4]; 48 h incubation) | inhibition at 16 µg/mL ([4]; 24 h incubation) | inhibition at 16 µg/mL ([4]; 48 h incubation) | inhibition at 0.12 µg/mL ([5]; 24 h incubation) | inhibition at 0.25 µg/mL ([5]; 24 h incubation) | inhibition at 0.25 µg/mL ([5]; 48 h incubation) | inhibition at 0.5 µg/mL ([5]; 24 h incubation) | inhibition at 0.5 µg/mL ([5]; 48 h incubation) | inhibition at 1 µg/mL ([5]; 24 h incubation) | inhibition at 1 µg/mL ([5]; 48 h incubation) | inhibition at 2 µg/mL ([5]; 24 h incubation) | inhibition at 2 µg/mL ([5]; 48 h incubation) | inhibition at 4 µg/mL ([5]; 24 h incubation) | inhibition at 4 µg/mL ([5]; 48 h incubation) | inhibition at 8 µg/mL ([5]; 24 h incubation) | inhibition at 8 µg/mL ([5]; 48 h incubation) | inhibition at 16 µg/mL ([5]; 24 h incubation) | inhibition at 16 µg/mL ([5]; 48 h incubation)
63%: inhibition at 0.06 µg/mL ([2]; 24 h incubation)
68%: inhibition at 0.12 µg/mL ([1]; 48 h incubation)
95.2%: inhibition at 0.12 µg/mL ([4]; 24 h incubation)
30.3%: inhibition at 0.03 µg/mL ([4]; 24 h incubation)
17%: inhibition at 0.03 µg/mL ([3]; 48 h incubation) | inhibition at 0.03 µg/mL ([4]; 48 h incubation)
48.4%: inhibition at 0.06 µg/mL ([5]; 24 h incubation)
5%: inhibition at 0.06 µg/mL ([3]; 72 h incubation)
81.5%: inhibition at 0.25 µg/mL ([3]; 72 h incubation)
76.7%: inhibition at 0.12 µg/mL ([5]; 48 h incubation)
32%: inhibition at 0.06 µg/mL ([3]; 48 h incubation) | inhibition at 0.06 µg/mL ([4]; 48 h incubation)
11.2%: inhibition at 0.03 µg/mL ([2]; 48 h incubation)
0%: inhibition at 0.03 µg/mL ([3]; 72 h incubation) | inhibition at 0.03 µg/mL ([5]; 24 h incubation)
25%: inhibition at 0.03 µg/mL ([1]; 48 h incubation) | inhibition at 0.03 µg/mL ([5]; 48 h incubation)
16.8%: inhibition at 0.03 µg/mL ([1]; 24 h incubation)
84.5%: inhibition at 0.12 µg/mL ([2]; 48 h incubation)
